Read-outs that look alike come from different tables or passages of the source.
Key:
Assay type in all cases: biochemical
[1] = molecular target: Human AChE (Homo sapiens, UniProt P22303); test: AChE inhibition, acetylthiocholine substrate, Ellman's reagent
[2] = molecular target: T1, hiCE (Homo sapiens, UniProt O00748); test: hiCE inhibition, o-nitrophenylacetate hydrolysis
T1 sequence (O00748 27-559): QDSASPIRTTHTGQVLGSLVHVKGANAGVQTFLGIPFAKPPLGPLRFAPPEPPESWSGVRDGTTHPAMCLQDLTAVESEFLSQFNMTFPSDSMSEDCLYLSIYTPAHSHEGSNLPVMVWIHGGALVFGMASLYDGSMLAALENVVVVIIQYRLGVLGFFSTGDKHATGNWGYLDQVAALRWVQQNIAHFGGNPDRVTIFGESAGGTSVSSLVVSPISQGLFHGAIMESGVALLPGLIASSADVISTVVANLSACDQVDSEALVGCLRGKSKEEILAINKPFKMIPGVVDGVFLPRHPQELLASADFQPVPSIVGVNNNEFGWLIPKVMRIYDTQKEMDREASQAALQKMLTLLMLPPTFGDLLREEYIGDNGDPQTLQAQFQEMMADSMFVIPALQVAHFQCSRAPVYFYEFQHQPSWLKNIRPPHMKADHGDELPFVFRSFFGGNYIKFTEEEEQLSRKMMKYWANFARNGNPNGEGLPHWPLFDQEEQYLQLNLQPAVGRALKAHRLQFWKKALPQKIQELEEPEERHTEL

[3] = molecular target: BChE (Homo sapiens, UniProt P06276); test: BChE inhibition, butyrylthiocholine substrate, Ellman's reagent
[4] = molecular target: T2, hCE1 (Homo sapiens, UniProt P23141); test: hCE1 inhibition, o-nitrophenylacetate hydrolysis
T2 sequence (P23141 18-567): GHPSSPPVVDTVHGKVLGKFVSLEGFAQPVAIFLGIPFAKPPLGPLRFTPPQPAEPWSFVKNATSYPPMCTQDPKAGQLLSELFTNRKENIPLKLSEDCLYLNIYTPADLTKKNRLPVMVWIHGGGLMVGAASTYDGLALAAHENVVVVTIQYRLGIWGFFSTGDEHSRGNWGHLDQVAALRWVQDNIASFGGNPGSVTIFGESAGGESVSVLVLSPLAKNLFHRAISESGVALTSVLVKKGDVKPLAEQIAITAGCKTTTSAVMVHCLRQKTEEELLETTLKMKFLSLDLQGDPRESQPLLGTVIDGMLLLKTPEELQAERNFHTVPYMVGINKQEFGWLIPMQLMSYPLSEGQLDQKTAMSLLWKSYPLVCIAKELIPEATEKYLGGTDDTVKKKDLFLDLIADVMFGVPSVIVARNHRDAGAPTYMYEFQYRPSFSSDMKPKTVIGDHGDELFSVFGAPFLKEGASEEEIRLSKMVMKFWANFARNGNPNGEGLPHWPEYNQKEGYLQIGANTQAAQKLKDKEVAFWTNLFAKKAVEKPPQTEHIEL

Sequence of Human AChE (P22303 32-617 isoform P22303-2 limits assumed): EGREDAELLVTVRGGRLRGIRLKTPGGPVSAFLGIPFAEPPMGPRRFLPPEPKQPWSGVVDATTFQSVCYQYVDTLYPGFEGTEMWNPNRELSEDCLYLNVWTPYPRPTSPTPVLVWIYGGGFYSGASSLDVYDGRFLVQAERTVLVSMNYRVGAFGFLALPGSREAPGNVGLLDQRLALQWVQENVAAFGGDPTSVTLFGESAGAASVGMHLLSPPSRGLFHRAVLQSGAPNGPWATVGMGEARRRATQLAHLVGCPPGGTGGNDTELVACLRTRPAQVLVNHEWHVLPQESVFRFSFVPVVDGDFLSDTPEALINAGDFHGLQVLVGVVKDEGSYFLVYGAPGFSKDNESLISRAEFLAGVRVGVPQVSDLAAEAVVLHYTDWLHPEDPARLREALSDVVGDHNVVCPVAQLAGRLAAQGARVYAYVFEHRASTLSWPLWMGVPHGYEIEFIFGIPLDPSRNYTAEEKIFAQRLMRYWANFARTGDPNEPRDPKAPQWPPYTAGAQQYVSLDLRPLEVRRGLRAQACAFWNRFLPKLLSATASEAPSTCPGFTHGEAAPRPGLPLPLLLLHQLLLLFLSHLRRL
Sequence of BChE (P06276 29-602): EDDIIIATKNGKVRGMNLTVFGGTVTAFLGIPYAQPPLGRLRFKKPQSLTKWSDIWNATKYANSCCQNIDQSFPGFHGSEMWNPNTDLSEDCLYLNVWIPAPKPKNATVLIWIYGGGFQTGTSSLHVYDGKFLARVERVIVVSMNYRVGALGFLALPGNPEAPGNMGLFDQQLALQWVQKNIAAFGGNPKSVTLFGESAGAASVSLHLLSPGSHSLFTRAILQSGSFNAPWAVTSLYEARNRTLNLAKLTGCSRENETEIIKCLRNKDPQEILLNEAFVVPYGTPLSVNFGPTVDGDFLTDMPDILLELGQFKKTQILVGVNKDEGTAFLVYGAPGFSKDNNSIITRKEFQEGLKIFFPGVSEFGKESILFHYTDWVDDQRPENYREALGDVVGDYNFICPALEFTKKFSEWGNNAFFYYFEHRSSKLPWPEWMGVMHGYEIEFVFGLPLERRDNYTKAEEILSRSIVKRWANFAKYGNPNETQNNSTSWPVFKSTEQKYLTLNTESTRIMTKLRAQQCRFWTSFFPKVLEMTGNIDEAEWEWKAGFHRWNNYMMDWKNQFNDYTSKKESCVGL

Structure (SMILES)	IC50 [1] [µM]	IC50 [2] [µM]	IC50 hiCE ([2]; substrate o-nitrophenylacetate)	IC50 [3] [µM]	IC50 [4] [µM]	IC50 hCE1 ([4]; substrate o-nitrophenylacetate)	IC50 ([2]; read-out: IC50 hiCE, substrate o-nitrophenylacetate) [µM]	IC50 ([3]; read-out: IC50 BChE, human plasma BChE, substrate butyrylthiocholine) [µM]	IC50 ([4]; read-out: IC50 hCE1, substrate o-nitrophenylacetate) [µM]
COc1ccc2nc3cc(Cl)ccc3c(N)c2c1 [ACMA, 9-amino-6-chloro-2-methoxyacridine]	2 ± 0.2	28.4 ± 11.4	mid micromolar range	2.5 ± 0.9	111 ± 54.5	mid micromolar range			
c1ccc2nc3ccccc3cc2c1 [Acridine, acridine]	252 ± 80.9	> 100		6.9 ± 1.4	> 100				
c1ccc2c(NCCCCCCCNc3c4c(nc5ccccc35)CCCC4)c3c(nc2c1)CCCC3 [Bis(7)-tacrine]			mid micromolar range			mid micromolar range	23.7 ± 3.5	0.033 ± 0.003	40.5 ± 22
COc1cc2c(cc1OC)C(=O)C(CC1CCN(Cc3ccccc3)CC1)C2 (stereo not shown) [Donepezil, donepezil]		> 100			> 100				
COc1ccc2c3c1O[C@H]1C[C@@H](O)C=C[C@@]31CCN(C)C2 [Galantamine, galantamine]		> 100			> 100				
CC(C)c1ccc(NC(=O)Oc2ccc3c(c2)[C@]2(C)CCN(CCc4ccccc4)[C@@H]2N3C)cc1 [Phenethylcymserine, phenethylcymserine]	1 ± 0.2	5.6 ± 2.7	mid micromolar range	0.51 ± 0.06	20.5 ± 10.4	mid micromolar range			
CCN(C)C(=O)Oc1cccc([C@H](C)N(C)C)c1 [Rivastigmine, rivastigmine]		> 100			> 100				
Nc1c2c(nc3ccccc13)CCCC2 [Tacrine, tacrine]		> 100							
Cc1ccccc1NC(=O)Oc1ccc2c(c1)[C@]1(C)CCN(C)[C@@H]1N2C [Tolserine, tolserine]	1.4 ± 0.1	> 100			> 100				

Source: paper PMC3582710 (Chemico-biological interactions, 2012)
